In patent publication US11840489B2, “Symbiosis-promoting agent and method for promoting symbiosis of arbuscular mycorrhizal fungi” (TOYOTA JIDOSHA KABUSHIKI KAISHA, priority 2020, dated 2023):

How the values were obtained:
[1] = system: arbuscular mycorrhizal fungi; experiment: Infection rate of arbuscular mycorrhizal fungi in chives, soil supplemented with cystathionine (Example 4); assay type: in vivo; conditions: 1 mM in soil, 4 weeks, vs cystathionine-free control, FIG. 4
Protocol: (§1) Chives were used in this example. The medium (one-tenth of the amount, Hoagland No. 2 basal salt mixture (SIGMA), 0.1 mM KNO3) was added to fertilizer-free soil. As control samples, sterilized chive seeds were directly seeded in soil supplemented with spores of arbuscular mycorrhizal fungi (500 or 1,000 spores) and in soil supplemented with the spores and cystathionine (0.1 or 1 mM). The plants were allowed to grow at 23 degrees C. with 16-hour light and 8-hour dark cycles for 4 weeks. Thereafter, chives were dug out, the arbuscular mycorrhizal fungi inside the root were stained with ink, and the infection rate of the mycorrhizal fungi (the amount of hyphae per root length (%)) was determined with observation under a microscope.

[2] = system: arbuscular mycorrhizal fungi; experiment: Infection rate of arbuscular mycorrhizal fungi in chives, soil with cystathionine, GSH or Phoron (Comparative Example 2); assay type: in vivo, Rhizophagus irregularis DAOM197198; conditions: 500 spores, 1 month, FIG. 6; for infection rate (amount of hyphae per root length): 0.1 or 1 mM in soil, vs control with 500 spores
Protocol: (§2) Specifically, monocotyledonous plants of Allium (chives; Allium schoenoprasum) were infected with arbuscular mycorrhizal fungi (Rhizophagus irregularis DAOM197198), and the infection rate (%) of the mycorrhizal fungi that had invaded inside the roots was determined.
as §1, with “Plants” for “Chives”, “infected with arbuscular mycorrhizal fungi” for “used”, “the same manner as in Example 2. That is, the” for “this example. The”, “(4,000” for “(500 or 1,000”, “GSSG (10” for “cystathionine (0.1”, “100 microM).” for “1 mM).”
In the same manner as in Example 3, the medium (one-tenth of the amount, Hoagland No. 2 basal salt mixture (SIGMA), 0.1 mM KNO3) was added to fertilizer-free soil. As control samples, sterilized chive seeds were directly seeded in soil supplemented with spores of arbuscular mycorrhizal fungi (500 spores and 1,000 spores) and in soil supplemented with the 500 spores, cystathionine (0.1 or 1 mM), GSH (0.1 or 1 mM), and Phoron (0.1 or 1 mM). The plants were allowed to grow at 23 degrees C. with 16-hour light and 8-hour dark cycles for 1 month. Thereafter, chives were dug out, the arbuscular mycorrhizal fungi inside the root were stained with ink, and the infection potential of the mycorrhizal fungi (the amount of hyphae per root length (%)) was determined with observation under a microscope.

[3] = system: arbuscular mycorrhizal fungi (Rhizophagus irregularis DAOM197198); experiment: Hyphal elongation of arbuscular mycorrhizal fungi in modified M medium, 4 weeks (Example 1); assay type: cell-based; conditions: 10 microM or 100 microM in medium, 30 degrees C., vs control without addition, p less than 0.05, Dunnett's test, n 16-19, FIG. 1
[4] = system: arbuscular mycorrhizal fungi (Rhizophagus irregularis DAOM197198); experiment: Infection rate of arbuscular mycorrhizal fungi in roots of Lotus japonicus grown in supplemented soil (Example 2); assay type: in vivo; conditions: Lotus japonicus, 4,000 spores, 4 weeks, FIG. 2
Protocol: Specifically, plants of Leguminosae (Lotus japonicus) were infected with arbuscular mycorrhizal fungi (Rhizophagus irregularis DAOM197198) in soil supplemented with GSSG, and the infection rate (%) of the mycorrhizal fungi invaded inside the roots was determined.
At the outset, the medium (one-tenth of the amount, Hoagland No. 2 basal salt mixture (SIGMA), 0.1 mM KNO3) was added to fertilizer-free soil. Also, control soil supplemented with spores of arbuscular mycorrhizal fungi (4,000 or 6,000 spores) and soil supplemented with spores of arbuscular mycorrhizal fungi (4,000 spores) and GSSG (10 or 100 microM) were prepared. Subsequently, seeds of Lotus japonicus (3 days after seeding) that had germinated in agar medium were transplanted therein. The plants were allowed to grow at 23 degrees C. with 16-hour light and 8-hour dark cycles for 4 weeks. Thereafter, Lotus japonicus was dug out, the arbuscular mycorrhizal fungi inside the root were stained with ink, and the infection rate of the mycorrhizal fungi (the amount of hyphae per root length (%)) was determined with observation under a microscope.

[5] = system: arbuscular mycorrhizal fungi (Rhizophagus irregularis DAOM197198); experiment: Infection rate of arbuscular mycorrhizal fungi in roots of chives (Allium schoenoprasum) grown in supplemented soil (Example 3); assay type: in vivo; conditions: chives, 4,000 spores, 10 or 100 microM in soil, 4 weeks; vs control; Dunnett's test, n=8; FIG. 3
Protocol: as §2
as §1, with “Plants” for “Chives”, “infected with arbuscular mycorrhizal fungi” for “used”, “the same manner as in Example 2. That is, the” for “this example. The”, “(4,000” for “(500 or 1,000”, “GSSG (10” for “cystathionine (0.1”, “100 microM).” for “1 mM).”

[6] = system: root nodule bacteria (Mesorhizobium loti); experiment: Root nodule bacterial infection of Lotus japonicus: root nodules and infection hyphae (Comparative Example 1); assay type: in vivo; conditions: 10 or 100 microM, FIG. 5
Protocol: In this comparative example, root nodule bacteria from Lotus japonicus plants (Mesorhizobium loti, a transformant comprising a fluorescent protein (DsRED) introduced thereinto) were used. Vermiculite was supplemented with B&D medium (Broughton and Dilworth, 1971), KNO3 (final concentration: 0.1 mM), root nodule bacteria, and oxidized glutathione at 0, 10, or 100 microM to prepare media. The resulting media (50 ml) were added to 300 ml of fertilizer-free soil (vermiculite) in a pot, and young plants of Lotus japonicus 3 days after seeding were planted therein. The infection hyphae that serve as the routes of infection with root nodule bacteria formed in the root hair cells of Lotus japonicus and the root nodules that are symbiotic organs formed in the roots of Lotus japonicus were examined 1 week and 2 weeks after the growth.

[7] = system: arbuscular mycorrhizal fungi (Rhizophagus irregularis DAOM197198); conditions: 30 degrees C., 1 week, FIG. 7
Protocol: The modified M medium (0.3% gerlite, Becard and Fortin, 1988 New phytologist, 108, 211-218) was supplemented with oxidized glutathione (10 microM or 100 microM), spores of arbuscular mycorrhizal fungi (Rhizophagus irregularis DAOM197198) were inoculated, and culture was conducted at 30 degrees C. for 4 weeks. For comparison, arbuscular mycorrhizal fungi were cultured in the same manner, except that oxidized glutathione was not added. The number of hyphae elongated outside of the circle (a radius of 7.5 mm) centered on the inoculated portion of the medium was counted, and the extent of elongation was determined based on the number of spores.
In the same manner as in Example 1, reduced glutathione (10 mM) was added to the modified M medium (0.3% gerlite), spores of arbuscular mycorrhizal fungi (Rhizophagus irregularis DAOM197198) were inoculated therein, and culture was conducted at 30 degrees C. for 1 week. For comparison, arbuscular mycorrhizal fungi were cultured in the same manner, except that reduced glutathione was not added.

In the case of `NC(CCSCC(N)C(=O)O)C(=O)O` (centres unmarked) [cystathionine, 2-amino-4-(2-amino-2-carboxy-ethyl)thio-butanoic acid], the “infection rate of the mycorrhizal fungi (amount of hyphae per root length)” value [1] is reported as “significantly enhanced”, the “infection rate compared with the sample supplemented with 1,000 spores” value ([2]; 1 mM) is reported as “equivalent” and the “infection rate (amount of hyphae per root length)” value [2] is reported as “enhanced”.

In the case of `CC(C)=CC(=O)C=C(C)C` [Phoron, reference compound], the “infection rate (amount of hyphae per root length)” value [2] is reported as “inhibited”.

oxidized glutathione was tested, and the “hyphal elongation (number of hyphae elongated outside circle of radius 7.5 mm, per number of spores)” value [3] was “significant effects of promoting hyphal elongation”, the “infection rate compared with control inoculated with 1.5 times greater amount of spores (6,000 spores)” value ([4]; 10 microM) was “equivalent” and the “infection rate of the mycorrhizal fungi (amount of hyphae per root length)” value ([4]; 10 or 100 microM in soil, vs GSSG-free control (4,000 spores), Dunnett's test, n=8) was “significantly enhanced”. For the same molecule, the “infection rate compared with control inoculated with 1.5 times greater amount of spores (6,000 spores)” value ([4]; 100 microM) was “enhance”, the “infection rate of the mycorrhizal fungi (amount of hyphae per root length)” value [5] was “significantly enhanced” and the “formation of infection hyphae” value ([6]; 1 week after the growth) was “significant inhibitory effects”. For the same molecule, the “formation of root nodules” value ([6]; 1 week after the growth) was “significant inhibitory effects”, the “inhibitory effects on formation of infection hyphae” value ([6]; 2 weeks after the growth) was “not observed” and the “inhibitory effects on formation of root nodules” value ([6]; 2 weeks after the growth) was “not observed”.

For `N[C@@H](CCC(=O)N[C@@H](CS)C(=O)NCC(=O)O)C(=O)O` [reduced glutathione, N—(N-gamma-L-glutamyl-L-cysteinyl)glycine], the “infection rate (amount of hyphae per root length)” value [2] was “inhibited”, the “hyphal elongation of arbuscular mycorrhizal fungi at high concentration” value ([7]; 10 mM) was “no hyphal elongation was observed” and the spore survival ([7]; 10 mM) was “died”. For the same molecule, the “hyphal elongation of arbuscular mycorrhizal fungi” value ([7]; medium supplemented with reduced glutathione, vs no addition) was “deteriorated hyphal elongation”.
